Test results reported in patent publication US20160000080A1, “COMPOSITIONS CONTAINING ISOSORBIDE MONOESTER AND ALIPHATIC VICINAL DIOLS” (CLARIANT INTERNATIONAL LTD., priority 2011, published 2016).
Like-named read-outs stand apart in the source and are kept apart here. Each block holds one molecule with its values, some of them ahead of it.

Key:
Aspergillus brasiliensis = experiment: Minimum inhibitory concentration (MIC) in agar; type: cell-based; settings: Aspergillus brasiliensis (F)
Protocol: (§1) Below, the antimicrobial efficacy of a composition according to the invention consisting of 50% by weight of isorbide caprylate 1 and 50% by weight of ethylhexylglycerin against bacteria, fungi and yeasts is examined (hereinbelow, the composition is referred to as “composition A”). For the tests with bacteria, composition A was diluted with butyl polyglycol and then, at 50° C., added to liquid CASO agar (casein-peptone agar) buffered to pH 7 (+/−0.2) in various concentrations (hereinbelow referred to as compositions B1, B2, etc.). For the tests with fungi and yeasts, composition A was diluted with butyl polyglycol and then added to liquid Sabouraud 4% dextrose agar buffered to pH 5.6 (+/−0.2) in various concentrations (hereinbelow referred to as compositions PH1, PH2, etc.). The compositions B1, B2, etc. and PH1, PH2 etc. were each poured into Petri dishes and each inoculated with identical amounts of bacteria, fungi and yeasts. The minimum inhibitory concentration (MIC) is the concentration at which inhibition of the growth of the bacteria, fungi and yeasts in the compositions B1, B2, etc. and PH1, PH2, etc. occurs.
(§2) The minimum inhibitory concentrations for the pure substances isosorbide caprylate 1 and ethylhexylglycerin were determined analogously.
(§3) The values determined for the minimum inhibitory concentrations “MIC mixture”, stated in Table 1 below, are based on the concentrations of composition A.
(§4) The values determined for the minimum inhibitory concentrations “QA” and “QB”, stated in Table 1 below, have already been corrected for the dilution effect of the butyl polyglycol.
(§5) From the minimum inhibitory concentrations determined, it is then possible to calculate whether a synergistic effect is present or not. Whether a synergistic effect is present is calculated according to F. C. Kull et al., Applied Microbiology 1961, 9, 538 using the formula below: […]
(§6) where • Qa is the minimum inhibitory concentration of isosorbide caprylate 1 in the mixture employed, • QA is the minimum inhibitory concentration of isosorbide caprylate 1, • Qb is the minimum inhibitory concentration of ethylhexylglycerin in the mixture employed and • QB is the minimum inhibitory concentration of ethylhexylglycerin.
(§7) The values for Qa and Qb are determined from the values for the mixtures (“MIC mixture”) by multiplying the minimum inhibitory concentrations determined for Qa with the factor 0.5 and for Qb with the factor 0.5, because of the proportions of the ingredients—50% by weight of isosorbide caprylate 1 and 50% by weight of ethylhexylglycerin—in composition A according to the invention examined.
(§8) If an SE value>1 is obtained, an antagonistic effect is present. If SE=1, the compounds are neutral with respect to one another, and if SE<1, a synergistic effect is present.
(§9) Analogously to the determination of the antimicrobial activity according to the above example B), the antimicrobial activity of a mixture comprising, firstly, 89.6% by weight of isosorbide dicaprylate and 9.4% by weight of isosorbide monocaprylate (remainder: 1% by weight) (hereinbelow referred to as “isosorbide dicaprylate”) and, secondly, pure isosorbide was determined in further test series.

Aspergillus terreus = experiment: Minimum inhibitory concentration (MIC) in agar; type: cell-based; settings: Aspergillus terreus (F)
Protocol: as §1, §2, §3, §4, §5, §6, §7, §8, §9

Candida albicans = experiment: Minimum inhibitory concentration (MIC) in agar; type: cell-based; settings: Candida albicans (Y)
Protocol: as §1, §2, §3, §4, §5, §6, §7, §8, §9

Citrobacter freundii = experiment: Minimum inhibitory concentration (MIC) in agar; type: cell-based; settings: Citrobacter freundii (B)
Protocol: as §1, §2, §3, §4, §5, §6, §7, §8, §9

Enterobacter aerogenes = experiment: Minimum inhibitory concentration (MIC) in agar; type: cell-based; settings: Enterobacter aerogenes (B)
Protocol: as §1, §2, §3, §4, §5, §6, §7, §8, §9

Escherichia coli = experiment: Minimum inhibitory concentration (MIC) in agar; type: cell-based; settings: Escherichia coli (B)
Protocol: as §1, §2, §3, §4, §5, §6, §7, §8, §9

Fusarium solani = experiment: Minimum inhibitory concentration (MIC) in agar; type: cell-based; settings: Fusarium solani (F)
Protocol: as §1, §2, §3, §4, §5, §6, §7, §8, §9

Klebsiella pneumoniae = experiment: Minimum inhibitory concentration (MIC) in agar; type: cell-based; settings: Klebsiella pneumoniae (B)
Protocol: as §1, §2, §3, §4, §5, §6, §7, §8, §9

Penicillium funicolosium = experiment: Minimum inhibitory concentration (MIC) in agar; type: cell-based; settings: Penicillium funicolosium (F)
Protocol: as §1, §2, §3, §4, §5, §6, §7, §8, §9

Penicillium minioluteum = experiment: Minimum inhibitory concentration (MIC) in agar; type: cell-based; settings: Penicillium minioluteum (F)
Protocol: as §1, §2, §3, §4, §5, §6, §7, §8, §9

Proteus vulgaris = experiment: Minimum inhibitory concentration (MIC) in agar; type: cell-based; settings: Proteus vulgaris (B)
Protocol: as §1, §2, §3, §4, §5, §6, §7, §8, §9

Pseudomonas aeruginosa = experiment: Minimum inhibitory concentration (MIC) in agar; type: cell-based; settings: Pseudomonas aeruginosa (B)
Protocol: as §1, §2, §3, §4, §5, §6, §7, §8, §9

Pseudomonas oleovorans = experiment: Minimum inhibitory concentration (MIC) in agar; type: cell-based; settings: Pseudomonas oleovorans (B)
Protocol: as §1, §2, §3, §4, §5, §6, §7, §8, §9

Staphylococcus aureus = experiment: Minimum inhibitory concentration (MIC) in agar; type: cell-based; settings: Staphylococcus aureus (B)
Protocol: as §1, §2, §3, §4, §5, §6, §7, §8, §9

[1] = tested on: bacteria, fungi and yeasts; experiment: Antimicrobial efficacy, overall statements; type: cell-based
Protocol: Below, the antimicrobial efficacy of a composition according to the invention consisting of 50% by weight of isorbide caprylate 1 and 50% by weight of ethylhexylglycerin against bacteria, fungi and yeasts is examined (hereinbelow, the composition is referred to as “composition A”). For the tests with bacteria, composition A was diluted with butyl polyglycol and then, at 50° C., added to liquid CASO agar (casein-peptone agar) buffered to pH 7 (+/−0.2) in various concentrations (hereinbelow referred to as compositions B1, B2, etc.). For the tests with fungi and yeasts, composition A was diluted with butyl polyglycol and then added to liquid Sabouraud 4% dextrose agar buffered to pH 5.6 (+/−0.2) in various concentrations (hereinbelow referred to as compositions PH1, PH2, etc.). […]
as §2, §9

[2] = tested on: bacteria, fungi and yeasts; settings: general statement, no test described, cited from earlier work
[3] = MIC mixture x factor 0.5 (composition A)
[4] = Sabouraud 4% dextrose agar pH 5.6 (+/-0.2)
[5] = Sabouraud 4% dextrose agar pH 5.6 (+/-0.2), read-out: minimum inhibitory concentration (MIC), meas.
[6] = CASO agar pH 7 (+/-0.2), read-out: minimum inhibitory concentration (MIC), meas.

minimum inhibitory concentration (MIC), meas. (Aspergillus brasiliensis; [4]): 1000 ppm | minimum inhibitory concentration (MIC), meas. (Aspergillus terreus; [4]): 1000 ppm | minimum inhibitory concentration (MIC), meas. (Candida albicans; [4]): 1000 ppm | minimum inhibitory concentration (MIC), meas. (Citrobacter freundii; CASO agar pH 7 (+/-0.2)): 1500 ppm | minimum inhibitory concentration (MIC), meas. (Enterobacter aerogenes; CASO agar pH 7 (+/-0.2)): 2000 ppm | minimum inhibitory concentration (MIC), meas. (Escherichia coli; CASO agar pH 7 (+/-0.2)): 1000 ppm | minimum inhibitory concentration (MIC), meas. (Fusarium solani; [4]): 500 ppm | minimum inhibitory concentration (MIC), meas. (Klebsiella pneumoniae; CASO agar pH 7 (+/-0.2)): 2000 ppm | minimum inhibitory concentration (MIC), meas. (Penicillium funicolosium; [4]): 500 ppm | minimum inhibitory concentration (MIC), meas. (Penicillium minioluteum; [4]): 750 ppm | minimum inhibitory concentration (MIC), meas. (Proteus vulgaris; CASO agar pH 7 (+/-0.2)): 1500 ppm | minimum inhibitory concentration (MIC), meas. (Pseudomonas aeruginosa; CASO agar pH 7 (+/-0.2)): 5000 ppm | minimum inhibitory concentration (MIC), meas. (Pseudomonas oleovorans; CASO agar pH 7 (+/-0.2)): 5000 ppm | minimum inhibitory concentration (MIC), meas. (Staphylococcus aureus; CASO agar pH 7 (+/-0.2)): 750 ppm
Molecule: CCCCC(CC)COCC(O)CO (stereo not shown) [ethylhexylglycerin]
minimum inhibitory concentration of the component in the mixture employed (Qa / Qb), calc. (Aspergillus brasiliensis; [3]): 375 ppm | minimum inhibitory concentration of the component in the mixture employed (Qa / Qb), calc. (Aspergillus terreus; [3]): 250 ppm | minimum inhibitory concentration of the component in the mixture employed (Qa / Qb), calc. (Candida albicans; [3]): 375 ppm | minimum inhibitory concentration of the component in the mixture employed (Qa / Qb), calc. (Citrobacter freundii; [3]): 750 ppm | minimum inhibitory concentration of the component in the mixture employed (Qa / Qb), calc. (Enterobacter aerogenes; [3]): 2500 ppm | minimum inhibitory concentration of the component in the mixture employed (Qa / Qb), calc. (Escherichia coli; [3]): 750 ppm | minimum inhibitory concentration of the component in the mixture employed (Qa / Qb), calc. (Fusarium solani; [3]): 125 ppm | minimum inhibitory concentration of the component in the mixture employed (Qa / Qb), calc. (Klebsiella pneumoniae; [3]): 1000 ppm | minimum inhibitory concentration of the component in the mixture employed (Qa / Qb), calc. (Penicillium funicolosium; [3]): 125 ppm | minimum inhibitory concentration of the component in the mixture employed (Qa / Qb), calc. (Penicillium minioluteum; [3]): 250 ppm | minimum inhibitory concentration of the component in the mixture employed (Qa / Qb), calc. (Proteus vulgaris; [3]): 750 ppm | minimum inhibitory concentration of the component in the mixture employed (Qa / Qb), calc. (Pseudomonas aeruginosa; [3]): 2500 ppm | minimum inhibitory concentration of the component in the mixture employed (Qa / Qb), calc. (Pseudomonas oleovorans; [3]): 5000 ppm | minimum inhibitory concentration of the component in the mixture employed (Qa / Qb), calc. (Staphylococcus aureus; [3]): 500 ppm

Molecule: isosorbide monocaprylate
antimicrobial activity (in words) ([1]; concluded from the MICs of isosorbide caprylate 1 and of its other constituents): significant antimicrobial activity

MIC (Aspergillus brasiliensis; [5]): 10000 µg/mL | MIC (Aspergillus terreus; [5]): 10000 µg/mL | MIC (Candida albicans; [5]): 10000 µg/mL | MIC (Citrobacter freundii; [6]): 10000 µg/mL | MIC (Enterobacter aerogenes; Klebsiella aerogenes, CASO agar pH 7 (+/-0.2), read-out: minimum inhibitory concentration (MIC), meas.): 10000 µg/mL | MIC (Escherichia coli; [6]): 10000 µg/mL | MIC (Fusarium solani; [5]): 10000 µg/mL | MIC (Klebsiella pneumoniae; [6]): 10000 µg/mL | MIC (Penicillium funicolosium; [5]): 10000 µg/mL | MIC (Penicillium minioluteum; Talaromyces minioluteus, Sabouraud 4% dextrose agar pH 5.6 (+/-0.2), read-out: minimum inhibitory concentration (MIC), meas.): 10000 µg/mL | MIC (Proteus vulgaris; [6]): 10000 µg/mL | MIC (Pseudomonas aeruginosa; [6]): 10000 µg/mL | MIC (Pseudomonas oleovorans; Ectopseudomonas oleovorans, CASO agar pH 7 (+/-0.2), read-out: minimum inhibitory concentration (MIC), meas.): 10000 µg/mL | MIC (Staphylococcus aureus; [6]): 10000 µg/mL
Molecule: O[C@@H]1CO[C@H]2[C@@H]1OC[C@@H]2O [isosorbide]
antimicrobial activity (in words) ([1]; summary of the results of Table 2): neither isosorbide nor isosorbide dicaprylate are antimicrobially active

Molecule: CCCCCCCC(=O)O [caprylic acid]
antimicrobial activity (in words) ([2]; at a pH of 6 or above): no antimicrobial activity | antimicrobial efficacy (in words) [2]: antimicrobially effective
